Assay results: patent US11401278B2, “Macrocyclic indole derivatives” (The Broad Institute, Inc., priority 2017, dated 2022)
Where a name gives a salt, the structure may show the parent alone. Read-outs that look alike come from different tables or passages of the source.

What was measured:
SUDHL5 = experiment: Induction of cytotoxicity (Assay 6), SUDHL5; details: read-out: Cytotox SUDHL5 [M] (median) IC50, CellTiter-Glo, 5 hours, SUDHL5
MCL-1 = MCL-1 (Homo sapiens (Human), UniProt Q07820, K194A/K197A/R201A); experiment: Protein-protein interaction assay MCL-1/Noxa BH3 peptide (MCL-1 assay, TR-FRET); assay type: binding; details: MBP-MCL-1 / Noxa BH3 peptide, median
Sequence of MCL-1 (Q07820 whole entry K194A/K197A/R201A, looked up): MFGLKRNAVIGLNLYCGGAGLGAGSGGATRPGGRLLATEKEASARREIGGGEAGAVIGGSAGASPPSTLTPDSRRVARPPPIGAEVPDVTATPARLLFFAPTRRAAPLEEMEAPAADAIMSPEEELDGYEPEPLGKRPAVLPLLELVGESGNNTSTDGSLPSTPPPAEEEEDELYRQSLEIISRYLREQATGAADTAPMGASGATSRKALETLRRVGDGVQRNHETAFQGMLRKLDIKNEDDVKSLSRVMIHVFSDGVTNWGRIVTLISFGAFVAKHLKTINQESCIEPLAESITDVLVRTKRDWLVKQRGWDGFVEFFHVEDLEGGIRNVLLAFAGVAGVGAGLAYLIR
Summary of the method: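 TR-FRET competition assay read at 665/620 nm, with a Noxa BH3 tracer peptide (1 nM) plus Eu-cryptate anti-MBP and XL665-streptavidin. Compounds (0.1 nM-20 μM, duplicates) were pre-equilibrated 10 min at 22° C with 1 nM MBP-MCL-1 (173-329) in Tris pH 7, NaCl, KF, DTT buffer, then incubated 1 h at 22° C and overnight at 4° C. IC50 came from 4-parameter regression.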

SUDHL10 = experiment: Induction of caspase-3/7 activity (Assay 4), SUDHL10; assay type: cell-based; details: caspase-3/7 induction, median
Summary of the method: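 DLBCL cells were exposed to compounds for 3 hours at 37 °C, then caspase-3/7 activation was read with Caspase-Glo 3/7 reagent. After subtracting medium-only background, EC50s were derived with fixed C0=1 and the reference compound's maximal induction as plateau.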

Row | Compound | IC50 (MCL-1) [nM] | EC50 (SUDHL10; 3 hours) [nM] | EC50 (SUDHL10; Homo sapiens, SU-DHL10, 3 h) [nM] | IC50 (SUDHL5) [M] | IC50 (SUDHL5; Homo sapiens, SU-DHL-5, 5 h) [M]
1 | Cc1c2c(nn1C)CN(C1CC1)S(=O)(=O)CCCn1c(C(=O)O)c(CCCOc3cccc4cc(F)ccc34)c3ccc(Cl)c-2c31 (single isomer, unassigned; enantiomer 2) [Example 43, (+)-4-chloro-14-cyclopropyl-7-{3-[(6-fluoro-1-naphthyl)oxy]propyl}-2,3-dimethyl-11,12,14,15-tetrahydro-2H,10H-pyrazolo[3′,4′:4,5][1,2,8]thiadiazacycloundecino[6,7,8-hi]indole-8-carboxylic acid 13,13-dioxide N-diethylamine salt (Enantiomer 2)] | 6.2 | 9400 |  | 9.6e-06 | 
2 | CCNCC.CCc1c2c(nn1C)C(CCN1CCOCC1)N(C)S(=O)(=O)CCCn1c(C(=O)O)c(CCCOc3cccc4cc(F)ccc34)c3ccc(Cl)c-2c31 (single isomer, unassigned; enantiomer 2) [Example 76, 4-chloro-3-ethyl-7-{3-[(6-fluoronaphthalen-1-yl)oxy]propyl}-2,14-dimethyl-15-[2-(morpholin-4-yl)ethyl]-13,13-dioxo-10,11,12,13,14,15-hexahydro-2H-13lambda^6-pyrazolo[3′,4′:4,5][1,2,8]thiadiazacycloundecino[6,7,8-hi]indole-8-carboxylic acid-N-ethylethanamine Salt (Enantiomer 2)] | 0.59 | 5.5 |  | 6.7e-09 | 
3 | CCc1c2c(nn1C)CN(C)S(=O)(=O)CCCn1c(C(=O)O)c(CCCOc3cccc4ccccc34)c3ccc(Cl)c-2c31 [Example 20, (rac)-13-Chloro-12-ethyl-8,11-dimethyl-1-(3-(naphthalen-1-yloxy)propyl)-5,6,9,11-tetrahydro-4H,8H-pyrazolo[3′,4′:4,5][1]thia[2,8]diazacycloundecino[6,7,8-hi]indole-2-carboxylic acid 7,7-dioxide] | 2.7 |  | 2100 |  | 9.1e-07
4 | CCc1c2c(nn1C)CN(C)S(=O)(=O)CCCn1c(C(=O)O)c(CCCOc3cccc4c3CCC4)c3ccc(Cl)c-2c31 [Example 21, (rac)-13-Chloro-1-(3-((2,3-dihydro-1H-inden-4-yl)oxy)propyl)-12-ethyl-8,11-dimethyl-5,6,9,11-tetrahydro-4H,8H-pyrazolo[3′,4′:4,5][1]thia[2,8]diazacycloundecino[6,7,8-hi]indole-2-carboxylic acid 7,7-dioxide] | 1.7 |  | 1400 |  | 1e-06
5 | CCc1c2c(nn1C)CN(C)S(=O)(=O)CCCn1c(C(=O)O)c(CCCOc3cc(C)c(Cl)c(C)c3)c3ccc(Cl)c-2c31 [Example 22, (rac)-13-Chloro-1-(3-(4-chloro-3,5-dimethylphenoxy)propyl)-12-ethyl-8,11-dimethyl-4,5,6,8,9,11-hexahydropyrazolo[3′,4′:4,5][1,2,8]thiadiazacycloundecino[6,7,8-hi]indole-2-carboxylic acid 7,7-dioxide] | 3.1 |  | 3300 |  | 2.1e-06
6 | CCc1c2c(nn1C)CN(C)S(=O)(=O)CCCn1c(C(=O)O)c(CCCOc3cccc4c3CCCC4)c3ccc(Cl)c-2c31 [Example 23, (rac)-13-Chloro-12-ethyl-8,11-dimethyl-1-(3-((5,6,7,8-tetrahydronaphthalen-1-yl)oxy)propyl)-4,5,6,8,9,11-hexahydropyrazolo[3′,4′:4,5][1,2,8]thiadiazacycloundecino[6,7,8-hi]indole-2-carboxylic acid 7,7-dioxide] | 3.3 |  | 2300 |  | 1.7e-06

Second part, led by results:

Row | IC50 (MCL-1) [nM] | EC50 (SUDHL10; 3 hours) [nM] | EC50 (SUDHL10; Homo sapiens, SU-DHL10, 3 h) [nM] | Compound | IC50 (SUDHL5) [M] | IC50 (SUDHL5; Homo sapiens, SU-DHL-5, 5 h) [M]
7 | 0.31 | 380 |  | Cc1c2c(nn1C)C(CCN1CCOCC1)N(C)S(=O)(=O)CCCn1c(C(=O)O)c(CCCOc3cccc4ccccc34)c3cccc-2c31 (single isomer, unassigned; enantiomer 2) [Example 46, 2,3,14-trimethyl-15-[2-(morpholin-4-yl)ethyl]-7-{3-[(naphthalen-1-yl)oxy]propyl}-13,13-dioxo-10,11,12,13,14,15-hexahydro-2H-13lambda^6-pyrazolo[3′,4′:4,5][1,2,8]thiadiazacycloundecino[6,7,8-hi]indole-8-carboxylic acid N-ethylethanamine Salt (Enantiomer 2)] | 5e-07 | 
8 | 23 | > 33000 |  | Cc1c2c(nn1C)CNS(=O)(=O)CCCn1c(C(=O)O)c(CCCOc3cccc4cc(F)ccc34)c3ccc(Cl)c-2c31 (single isomer, unassigned; enantiomer 2) [Example 52, 4-chloro-7-{3-[(6-fluoronaphthalen-1-yl)oxy]propyl}-2,3-dimethyl-13,13-dioxo-10,11,12,13,14,15-hexahydro-2H-13lambda^6-pyrazolo[3′,4′:4,5][1,2,8]thiadiazacycloundecino[6,7,8-hi]indole-8-carboxylic acid (Enantiomer 2)] | 1.7e-05 | 
9 | 110 | 6800 |  | CCc1c2c(nn1C)C(CCC1CCOCC1)N(C)S(=O)(=O)CCCn1c(C(=O)O)c(CCCOc3cccc4cc(F)ccc34)c3ccc(Cl)c-2c31 (single isomer, unassigned; enantiomer 2) [Example 62, (−)-4-chloro-3-ethyl-7-{3-[(6-fluoronaphthalen-1-yl)oxy]propyl}-2,14-dimethyl-15-[2-(oxan-4-yl)ethyl]-13,13-dioxo-10,11,12,13,14,15-hexahydro-2H-13lambda^6-pyrazolo[3′,4′:4,5][1,2,8]thiadiazacycloundecino[6,7,8-hi]indole-8-carboxylic acid (Enantiomer 2)] | 5.3e-06 | 
10 | 0.4 | 12 |  | Cc1c2c(nn1C)C(CCN1CCOCC1)N(C)S(=O)(=O)CCCn1c(C(=O)O)c(CCCOc3cccc4cc(F)ccc34)c3ccc(Cl)c-2c31 (single isomer, unassigned; enantiomer 2) [Example 67, 4-chloro-7-{3-[(6-fluoronaphthalen-1-yl)oxy]propyl}-2,3,14-trimethyl-15-[2-(morpholin-4-yl)ethyl]-13,13-dioxo-10,11,12,13,14,15-hexahydro-2H-13lambda^6-pyrazolo[3′,4′:4,5][1,2,8]thiadiazacycloundecino[6,7,8-hi]indole-8-carboxylic acid (Enantiomer 2)] | 9.8e-09 | 
11 | 1.1 | 42 |  | CCc1c2c(nn1C)C(CCC1CCOCC1)N(C)S(=O)(=O)CCCn1c(C(=O)O)c(CCCOc3cccc4cc(F)ccc34)c3ccc(Cl)c-2c31 (single isomer, unassigned; enantiomer 3) [Example 63, (+)-4-chloro-3-ethyl-7-{3-[(6-fluoronaphthalen-1-yl)oxy]propyl}-2,14-dimethyl-15-[2-(oxan-4-yl)ethyl]-13,13-dioxo-10,11,12,13,14,15-hexahydro-2H-13lambda^6-pyrazolo[3′,4′:4,5][1,2,8]thiadiazacycloundecino[6,7,8-hi]indole-8-carboxylic acid (Enantiomer 3)] | 4.5e-08 | 
12 | 21 | 1600 |  | CCc1c2c(nn1C)C(CCC1CCOCC1)N(C)S(=O)(=O)CCCn1c(C(=O)O)c(CCCOc3cccc4cc(F)ccc34)c3ccc(Cl)c-2c31 (single isomer, unassigned; enantiomer 4) [Example 64, (−)-4-chloro-3-ethyl-7-{3-[(6-fluoronaphthalen-1-yl)oxy]propyl}-2,14-dimethyl-15-[2-(oxan-4-yl)ethyl]-13,13-dioxo-10,11,12,13,14,15-hexahydro-2H-13lambda^6-pyrazolo[3′,4′:4,5][1,2,8]thiadiazacycloundecino[6,7,8-hi]indole-8-carboxylic acid (Enantiomer 4)] | 1.2e-06 | 
